Where a name gives a salt, the structure may show the parent alone.

This note sets out measurements from patent US20140128733A1, “SYSTEMS AND METHODS FOR HEMODYNAMIC DETECTION OF CIRCULATORY ANOMALIES” (Cardiox Corporation, priority 2008, published 2014).

Data set [1] can be described thus: Excitation and fluorescence signal attenuation through tissue versus depth of artery (FIG. 2). In kind it is physicochemical. Particulars: FIG. 2 curve 38. The text has this:
(§1) Looking to the ICG dye spectrum, an excitation curve is shown at 34, having a peak excitation wavelength at about 785 nanometers. Correspondingly, the fluorescence emission from excitation at curve 34 is represented at curve 36 with a peak emission wavelength of about 830 nanometers. Directed across FIG. 2 is a curve 38 representing the level of constant signal attenuation or absorption of about 37% resulting from passage of signal through tissue. Note that if a blood vessel is about one millimeter beneath the surface of skin, the system would perform at about 37% of the original intensity of the excitation signal and fluorescence signal for the case of ICG dye indicator. In contrast, a 37% decrease in excitation and emission signal level would result for the fluorescein dye indicator at a tissue thickness of only 0.25 mm. Since the blood vessels being targeted are at least 1 mm below the skin surface, the attenuation and associated signal loss would be much larger. Therefore, ICG dye is the preferred indicator.
Turning again to the ICG dye spectrum, note that the excitation signal 34 for ICG intersects curve 38 at a depth allowing for readily reaching blood vessels, for example within the pinna (e.g., scaphoid fossa) of the ear. Accordingly, ICG dye is usable as a circulatory tracking agent when detecting through skin, and ICG dye was the indicator elected for subsequent study.

Data set [2] is described as follows: Excitation and fluorescence emission wavelengths of the dyes (FIG. 2). In kind it is physicochemical.
Excerpt: Looking to FIG. 2 in this regard, the excitation signal for fluorescein dye is represented at curve 30 which is an excitation signal at less than about 500 nanometers (nm). A resultant fluorescence emission from the excitation at 30 is shown at curve 32, at a wavelength of about 525 nm.
as §1
When an ICG indicator within the bloodstream reaches the site of irradiation with 785 nm (laser) light, the fluorescent moiety within the ICG indicator is excited as described in connection with FIG. 2 to an elevated energy state for a brief period. As the excited moiety returns to its normal energy state, it emits light at a longer wavelength (viz., 830 nm) and the difference between the excitation wavelength (viz., 785 nm) and the fluorescence emission wavelength (viz., 830 nm) is known as the Stokes Shift. This Stokes Shift of nominally 45 nm allows the fluoresce emission to be extracted by using a interferential or other type of optical filter to reflect or otherwise attenuate all but the wavelength band of interest (viz., 820 to 840 nm).

Take `CC1(C)C(/C=C/C=C/C=C/C=C2\N(CCCCS(=O)(=O)O)c3ccc4ccccc4c3C2(C)C)=[N+](CCCCS(=O)(=O)[O-])c2ccc3ccccc3c21` [ICG, 2-[7-[1,1-dimethyl-3-(4-sulfobutyl)benz[e]indolin-2-ylidene]-1,3,5-heptatrienyl]-1,1-dimethyl-3-(4-sulfobutyl)-1H-benz[e]indolium hydroxide, inner salt, sodium salt]: the “tissue depth at constant signal attenuation of about 37%” value in data set [1] was “about one”. In addition, in data set [2] (FIG. 2), the excitation wavelength result is recorded as “about 785 nm” and the fluorescence emission wavelength result is listed as “about 830 nm”. Further, the “Stokes Shift” value in data set [2] (difference between excitation and fluorescence emission wavelength) is given as around 45 nm.
